Laboratory results as given in patent US20220047617A1, “Nucleic acid nanocarrier drug, preparation method, pharmaceutical composition and use thereof” (BAI YAO ZHI DA (BEIJING) NANOBIO TECHNOLOGY CO., LTD., priority 2018, published 2022).
Like-named read-outs stand apart in the source and are kept apart here.

How the values were obtained:
HCT116 cells = test: Cytotoxicity in HCT116 cells (CellTiter-Glo), Embodiment 29; type: cell-based
Method: Cytotoxicity Research of RNAh-Bio-670-Docetaxel Nanoparticles in HCT116 Cells
(§1) 1) Cell Culturing and Plating
(§2) HCT116 cells are cultured at 37 DEG C. and 5% CO2 in the DMEM basal medium in which 10% FBS and 1% PS are respectively added. The cell density used in the experiment is above 80%. The cells are collected, and centrifuged at 1000 rpm for 4 minutes, the medium is resuspended, the cell concentration is adjusted, and it is added to the 96-well plate in a volume of 5000 cells per 90 μL, and each group has 4 replicate wells.
2) Gradient drug concentration preparation and administration
After 24 hours, the compound solution is transferred to each well, 200 nM of each sample per well, and 4 replication wells.
(§3) Medium (untreated) control: only cells without compound treatment
(§4) Blank control: without cells, used for instrument zero calibration
(§5) 3) Cell Culture after Administration
(§6) 4) Cells Treated by Detection Kit
The well plate is brought to a room temperature in advance and stands for 30 minutes. 100 μL of a CellTiter-Glo® reagent is added to each well of the well plate and mixed for 2 minutes on a shaker to promote cell lysis. The Perkin Elmer Envision 2104 Multilabel Reader is used to read values and the values are recorded. […]
(§7) The acquired experiment data is analyzed and processed by using excel software, and GraphPad Prism 5 software is used for curve fitting analysis.

MCF-7 cells [1] = test: Cytotoxicity in MCF-7 cells (CellTiter 96 AQueous One Solution), Embodiment 30; type: cell-based; details: Homo sapiens, MCF7, MCF-7, 96 hours
Method: (§8) 1) Harvesting cells in a logarithmic growth phase, taking a small amount and staining with trypan blue for counting to ensure that the cell viability reaches more than 98%;
(§9) 2) adjusting the cell density to 2.22×10^4/mL with a growth medium;
(§10) 3) planting 90 μL/well of cell suspension into the 96-well plate, herein the number of cells per well in the plate is 2000;
(§11) 4) placing the planted cell plate in the incubator at 37 DEG C. and incubating overnight;
(§12) 5) performing 3.16-fold gradient dilution on the compound at 9 concentration points;
(§13) 6) taking out the cell culture plate, and adding 10 μL/well of 10× concentration drug working solution to the corresponding wells of the cell culture plate, herein three replicate holes are made for each concentration, and the final drug action concentration is shown in Table 134 below;
(§14) 7) placing the cell culture plate in the incubator and continuously incubating for 96 hours; […]
(§15) 11) using a microplate reader to read a OD490 value of each well in the cell plate; and […]
(§16) GraphPad Prism 5.0 software is used to process data graphically. […] A calculation formula of the survival rate is as follows, the IC50 may be automatically calculated in GraphPad Prism 5.0. […]

SKOV3 cells [2] = test: Cytotoxicity in SKOV3 cells (CellTiter 96 AQueous One Solution), Embodiment 30; type: cell-based; details: Homo sapiens, SK-OV-3, SKOV3, 96 hours
Method: as §8, §9, §10, §11, §12, §13, §14, §15, §16

MCF-7 cells [3] = test: Cytotoxicity in MCF-7 cells (CellTiter 96 AQueous One Solution), Embodiment 33; type: cell-based, human; details: MCF-7, 96 hours
Method: Cytotoxicity of DNAh-Biotin-EGFRapt-Cy5-Mit Nanoparticles in MCF-7 Cells
as §8, §9, §10, §11, §12
6) taking out the cell culture plate, and adding 10 μL/well of 10× concentration drug working solution to the corresponding wells of the cell culture plate, herein three replicate holes are made for each concentration, and the final drug action concentration is shown in Table 144 below;
7) placing the cell culture plate in the incubator and continuously incubating for 96 hours […]
as §15, §16

MCF-7 cells [4] = test: Cytotoxicity in MCF-7 cells (CellTiter 96 AQueous One Solution), Embodiment 37; type: cell-based, human
Method: Cytotoxicity of DNAh-Biotin-EGFRapt-Cy5-Idarubicin Nanoparticles in MCF-7 and MV4-11 Cells
as §8, §9, §10, §11, §12
6) taking out the cell culture plate, and adding 10 μL/well of 10× concentration drug working solution to the corresponding wells of the cell culture plate, herein three replicate holes are made for each concentration, and the final drug action concentration is shown in Table 154 below;
as §14, §15, §16

MV4-11 cells [5] = test: Cytotoxicity in MV4-11 cells (CellTiter 96 AQueous One Solution), Embodiment 37; type: cell-based
Method: 9) adding 20 μL/well of the CellTiter 96® AQueous One Solution reagent to the cell culture plate; […]

RPMI 8226 cells = test: Cytotoxicity in RPMI 8226 cells (CellTiter 96 AQueous One Solution), Embodiment 21; type: cell-based; details: Homo sapiens, RPMI 8226, 96 hours
Method: as §8
(§17) 2) adjusting the cell density to 1.11×10^5/mL with a growth medium;
(§18) 3) planting 90 μL/well of cell suspension into the 96-well plate, herein the number of cells per well in the plate is 10000;
as §11, §12
7) placing the cell culture plate in the incubator and continuously incubating for 96 hours;
8) placing the CellTiter 96® AQueous One Solution reagent at the room temperature and thawing for 90 minutes or thawing in a water bath at 37 DEG C., and placing at the room temperature and equilibrating for 30 minutes;
9) adding 20 μL/well of the CellTiter 96® AQueous One Solution reagent to the cell culture plate;
10) placing the cell culture plate in the incubator at 37 DEG C. and continuously incubating for 3 hours;
11) using a microplate reader to read a OD490 value of each well in the cell plate; and
12) data processing and analysis.
as §16

U87MG cells = test: Cytotoxicity in U87MG cells (CellTiter-Glo), Embodiment 8; type: cell-based
Method: Cytotoxicity Research of RNAh-Bio-670-Paclitaxel Nanoparticles in U87MG Cells
as §1
as §2, with “U87MG” for “HCT116”, “EMEM” for “DMEM”
2) Gradient Drug Concentration Preparation and Administration […]
as §3, §4, §5, §6
The well plate is brought to a room temperature in advance and stands for 30 minutes. 100 μL of a CellTiter-Glo® reagent is added to each well of the well plate and mixed for 2 minutes on a shaker to promote cell lysis. The Perkin Elmer Envision 2104 Multilabel Reader is used to read values and the values are recorded.
5) Experiment Data Acquisition and Processing
as §7

SKOV3 cells [6] = test: Cytotoxicity in SKOV3 cells (CellTiter 96 AQueous One Solution), Embodiment 9; type: cell-based; details: Homo sapiens, SK-OV-3; SKOV3, 96 hours
Method: 11) using a microplate reader to read a OD490 value of each well in the cell plate; and 12) data processing and analysis.
GraphPad Prism 5.0 software is used to process data graphically. In order to calculate the IC50, “S”-shaped nonlinear regression analysis is performed on the data to match an appropriate dosage-effect curve. A calculation formula of the survival rate is as follows, the IC50 may be automatically calculated in GraphPad Prism 5.0. […]

MV4-11 cells [7] = test: Cytotoxicity in MV4-11 cells (CellTiter 96 AQueous One Solution), Embodiment 25; type: cell-based; details: MV4-11, 96 hours
Method: as §8, §17, §18, §11, §12
6) taking out the cell culture plate, and adding 10 μL/well of 10× concentration drug working solution to the corresponding wells of the cell culture plate, herein three replicate holes are made for each concentration, and the final drug action concentration is shown in Table 124 below;
as §14, §15, §16

[8] = Particle size measurement (DLS hydrodynamic size); type: physicochemical
Excerpt: (3) Particle Size Measurement
1. Preparing a potential sample (conventional-sequence DNA self-assembly product D-7) and putting into a sample pool, opening a sample pool cover of an instrument, and placing the instrument;
2. opening software, and clicking a menu, so a manual measurement parameter setting dialog box appears;
3. setting a software detection parameter; and then
4. clicking Ok to complete the settings, when a measurement dialog box appears, clicking Start to start, a DLS measurement value result of a hydrodynamic size of the self-assembly product D-7 is shown below in Table 40:
(3) Particle size measurement
(2) opening software, and clicking a menu, so a manual measurement parameter setting dialog box appears;
(3) setting a software detection parameter; and then

[9] = TM value detection by solubility curve method (SYBR Green I); type: physicochemical; details: extension fragment deformation+core short-sequence RNA nanoparticles; temperature at ½ RFUmax in 20 to 90 DEG C. taken as Tm
Method: A solubility curve method is used to detect TM values of the 7 groups of the extension fragment deformation+core short-sequence RNA nanoparticles, and the samples are consistent with the potential samples.
(1) After the sample is diluted with ultrapure water, 5 μg of the diluted sample is mixed with 2 μL of SYBR Green I dye (diluted by 1:200), a final volume is 20 μL, and the dilution concentration is as follows:
(2) It is incubated for 30 min in the dark at a room temperature; and
(3) On-machine detection is performed, a program is set to start at 20 DEG C., the temperature rises per second from 0.1 DEG C. to 95 DEG C., and reading is performed every 5 s.
Due to the particularity of the RNA samples, a temperature corresponding to ½ RFUmax in a range of 20 to 90 DEG C. is used as a sample Tm value in this test.
A solubility curve method is used to detect TM values of the 7 groups of the extension fragment deformation+core short-sequence DNA nanoparticles, and the samples are consistent with the potential samples.

[10] = compared with DNAh targeted fluorescent carrier

CC(=O)O[C@@]12CO[C@@H]1C[C@H](O)[C@@]1(C)C(=O)[C@H](O)C3=C(C)[C@@H](OC(=O)[C@H](O)[C@@H](NC(=O)OC(C)(C)C)c4ccccc4)C[C@@](O)([C@@H](OC(=O)c4ccccc4)[C@H]21)C3(C)C [docetaxel]
cell survival rate (HCT116 cells; HCT116, treatment time 72 h, drug concentration 200 nM): 10.68% | inhibition at 0.2 µM (HCT116 cells; Homo sapiens, HCT-116, HCT116, drug concentration 200 nM, 72 hours, read-out: cell inhibition rates): 50.5% | IC50 (MCF-7 cells [1]; read-out: IC50): < 1 nM | IC50 (MCF-7 cells [1]; read-out: IC50 acting on the MCF-7 cells): < 1 nM | IC50 (SKOV3 cells [2]; read-out: IC50): < 1 nM | IC50 (SKOV3 cells [2]; read-out: IC50 acting on the SKOV3 cells): < 1 nM

O=C1c2c(O)ccc(O)c2C(=O)c2c(NCCNCCO)ccc(NCCNCCO)c21 [Mit (mitoxantrone)]
IC50 (MCF-7 cells [3]): 538 nM

CC(=O)[C@]1(O)Cc2c(O)c3c(c(O)c2[C@@H](O[C@H]2C[C@H](N)[C@H](O)[C@H](C)O2)C1)C(=O)c1ccccc1C3=O [idarubicin]
IC50 (MCF-7 cells [4]; Homo sapiens, MCF7, MCF-7 cell line, 96 hours incubation, CellTiter 96 AQueous One Solution, OD490): 72.5 nM | toxicity to the MCF-7 cells (in words) (MCF-7 cells [4]; MCF-7, 96 hours, compared with DNAh targeted fluorescent carrier): toxic | IC50 (MV4-11 cells [5]; Homo sapiens, MV4-11 cell line, 96 hours incubation, CellTiter 96 AQueous One Solution, OD490): < 1 nM | toxicity to the MV4-11 cells (in words) (MV4-11 cells [5]; MV4-11, 96 hours, compared with DNAh targeted fluorescent carrier): toxic

Nc1cccc2c1CN(C1CCC(=O)NC1=O)C2=O (stereo not drawn) [lenalidomide, 3-(7-amino-3-oxo-1H-isoindol-2-yl) piperidine-2,6-dione]
IC50 (RPMI 8226 cells; read-out: IC50): 72300 nM | IC50 (RPMI 8226 cells; read-out: IC50 acting on the RPMI 8226 cells): 72300 nM

CC(=O)O[C@H]1C(=O)[C@@]2(C)[C@H]([C@H](OC(=O)c3ccccc3)[C@]3(O)C[C@H](OC(=O)[C@H](O)[C@@H](NC(=O)c4ccccc4)c4ccccc4)C(C)=C1C3(C)C)[C@]1(OC(C)=O)CO[C@@H]1C[C@@H]2O [Paclitaxel, paclitaxel]
inhibition rates of the drugs to the cells (U87MG cells; drug concentration is 10 μM): 23.77% | cell survival rate (%) (U87MG cells; treatment time 72 h, 200 nM of each sample per well (method)): 56.74% | IC50 (SKOV3 cells [6]): < 1 nM

O=C1c2c(O)ccc(O)c2C(=O)c2c(NCCNCCO)ccc(NCCNCCO)c21 [mitoxantrone]
toxicity to the MCF-7 cells (in words) (MCF-7 cells [3]; [10]): toxic

Nc1ccn([C@@H]2O[C@H](CO)[C@@H](O)[C@@H]2O)c(=O)n1 [cytarabine]
IC50 (MV4-11 cells [7]; Homo sapiens): 1250 nM | toxicity to the MV4-11 cells (in words) (MV4-11 cells [7]; [10]): toxic

B1: R-20: extension fragment deformation+core short-sequence RNA nanoparticles, strands SEQ ID NO: 135-137, a-strand 3′-biotin, 2′F (nucleic acid)
chain 1: GCGGCGAGCGGCGACGAGCGUUGCGGCCGGAGGCCGG
chain 2: CCGGCCUCCGGCCGCUUCGCCGCCAGCCGCC
chain 3: GGCGGCAGGCGGCCAUAGCCGUCGCCGCUCGCCGC
modifications: RNA nanoparticle strands, 2'-fluoro modified, a-strand 3'-biotin, positions not given here
Mean particle size (nm) [8]: 7.110 nm | TM value [9]: 59.5 °C
